Measurements: patent US10266609B2, “Immunomodulating beta-1,6-D-glucans” (Innate Biotherapeutics, LLC, priority 2014, dated 2019)

Tested on: Anti-β-1,6-Glucan IgG antibodies (affinity purified from IVIG, Baxter)
Assay: ELISA: binding of oligosaccharides to anti-β-1,6-glucan antibodies; also: key: a plus (+) sign indicates that the glucan was active in the assay; a minus (−) sign indicates that the glucan was not active; the '+/−' symbol indicates inconclusive results
Conditions: plate coated with oligosaccharide in PBS; 40 ug/mL anti-Beta 1,6 Glucan IgG; anti-human IgG-HRP, TMB, absorbance at 620 nm
Method: Binding of oligosaccharides to anti-β-1,6-glucan antibodies is performed as described in the following protocol.
• 1. […] Anti-β-1,6-Glucan IgG antibodies (affinity purified from IVIG, Baxter) • 6. […] PBS-Tween buffer (PH 7.2, 0.05% Tween 20, Kpl cat #51-12-01) II. Method: Detection of Anti-Beta Glucan IgG by ELISA • 1. Coat plate with oligosaccharides in PBS overnight at 4° C. • 2. Wash 3 times with 250 uL of PBS-Tween • 3. Empty plate • 4. Block plate with 200 uL of Casein for 1 hour at room temperature • 5. Empty plate • 6. Add 40 ug/mL anti-Beta 1,6 Glucan IgG (4 ug/well) in Casein • 7. Incubate for 45 min at room temperature • 8. Wash 3 times with 250 uL of PBS-Tween • 9. Empty plate • 10. Add detection antibody: anti-human IgG-HRP at 1:5000—in casein. Incubate for 45 min at room temperature in the dark • 11. Wash 5 times with 250 uL of PBS-Tween • 12. Empty plate • 13. Add 100 uL of one step ultra TMB • 14. Measure the absorbance at 620 nm every 1 min for 60 min Tables 1-3 provide ELISA assay data for certain glucan compounds.

Row | Compound | ELISA assay data: glucan active in detection of anti-beta glucan IgG
1 | 1-O-[2-(2-oxymethoxy)ethoxy]-6-O—[O-β-D-glucopyranosyl-(1,6)]3-β-D-glucopyranoside [β-O(CH2)2O(CH2)2C═O, n=4] | +
2 | 3,5-bis(1-[2-[O-β-D-glucopyranosyl-(1→6)-O-β-D-glucopyranosyl-(1→6)-O-β-D-glucopyranosyl-(1→6)-α-D-glucopyranosyl]oxy]ethyl-1H-1,2,3-triazol-4-yl)methoxybenzoic acid [(β-D-glucopyanosy1-1,6)nα-O(CH2)2-, n=4] | +
3 | O=C(O)C1CCN(CC(O)[C@@H](O)[C@H](O)[C@H](O)CO[C@@H]2O[C@H](CO[C@@H]3O[C@H](CO[C@@H]4O[C@H](CO)[C@@H](O)[C@H](O)[C@H]4O)[C@@H](O)[C@H](O)[C@H]3O)[C@@H](O)[C@H](O)[C@H]2O)C1 (mixture of isomers) [3-pyrrolidineCO2H, n=3] | +
4 | O=C(O)C1CCN(CC(O)[C@@H](O)[C@H](O)[C@H](O)CO[C@@H]2O[C@H](CO[C@@H]3O[C@H](CO[C@@H]4O[C@H](CO[C@@H]5O[C@H](CO)[C@@H](O)[C@H](O)[C@H]5O)[C@@H](O)[C@H](O)[C@H]4O)[C@@H](O)[C@H](O)[C@H]3O)[C@@H](O)[C@H](O)[C@H]2O)C1 (mixture of isomers) [3-pyrrolidineCO2H, n=4] | +
5 | O=C(O)C1CCN(CC(O)[C@@H](O)[C@H](O)[C@H](O)CO[C@@H]2O[C@H](CO[C@@H]3O[C@H](CO[C@@H]4O[C@H](CO[C@@H]5O[C@H](CO[C@@H]6O[C@H](CO)[C@@H](O)[C@H](O)[C@H]6O)[C@@H](O)[C@H](O)[C@H]5O)[C@@H](O)[C@H](O)[C@H]4O)[C@@H](O)[C@H](O)[C@H]3O)[C@@H](O)[C@H](O)[C@H]2O)C1 (mixture of isomers) [3-pyrrolidineCO2H, n=5] | +
6 | O=C(O)C1CCN(CC(O)[C@@H](O)[C@H](O)[C@H](O)CO[C@@H]2O[C@H](CO[C@@H]3O[C@H](CO[C@@H]4O[C@H](CO)[C@@H](O)[C@H](O)[C@H]4O)[C@@H](O)[C@H](O)[C@H]3O)[C@@H](O)[C@H](O)[C@H]2O)CC1 (mixture of isomers) [4-piperidineCO2H, n=3, N-[6-[(O-β-D-glucopyranosyl-(1,6))2-β-D-glucopyranosyl](2RS,3R,4R,5R)-2,3,4,5-tetrahydroxyhexyl]piperidine-4-carboxylic acid] | +
7 | O=C(O)C1CCN(CC(O)[C@@H](O)[C@H](O)[C@H](O)CO[C@@H]2O[C@H](CO[C@@H]3O[C@H](CO[C@@H]4O[C@H](CO[C@@H]5O[C@H](CO)[C@@H](O)[C@H](O)[C@H]5O)[C@@H](O)[C@H](O)[C@H]4O)[C@@H](O)[C@H](O)[C@H]3O)[C@@H](O)[C@H](O)[C@H]2O)CC1 (mixture of isomers) [4-piperidineCO2H, n=4] | +
8 | O=C(O)C1CCN(CC(O)[C@@H](O)[C@H](O)[C@H](O)CO[C@@H]2O[C@H](CO[C@@H]3O[C@H](CO[C@@H]4O[C@H](CO[C@@H]5O[C@H](CO[C@@H]6O[C@H](CO)[C@@H](O)[C@H](O)[C@H]6O)[C@@H](O)[C@H](O)[C@H]5O)[C@@H](O)[C@H](O)[C@H]4O)[C@@H](O)[C@H](O)[C@H]3O)[C@@H](O)[C@H](O)[C@H]2O)CC1 (mixture of isomers) [4-piperidineCO2H, n=5] | +
9 | O=C(O)c1cc(OCc2cn(CCO[C@H]3O[C@H](CO[C@@H]4O[C@H](CO[C@@H]5O[C@H](CO)[C@@H](O)[C@H](O)[C@H]5O)[C@@H](O)[C@H](O)[C@H]4O)[C@@H](O)[C@H](O)[C@H]3O)nn2)cc(OCc2cn(CCO[C@H]3O[C@H](CO[C@@H]4O[C@H](CO[C@@H]5O[C@H](CO)[C@@H](O)[C@H](O)[C@H]5O)[C@@H](O)[C@H](O)[C@H]4O)[C@@H](O)[C@H](O)[C@H]3O)nn2)c1 [(β-D-glucopyanosy1-1,6)nα-O(CH2)2-, n=3, 3,5-bis(1[2-[O-β-D-glucopyranosyl-(1→6)-O-β-D-glucopyranosyl-(1→6)-α-D-glucopyranosyl]oxy]ethyl-1H-1,2,3-triazol-4-yl)methoxybenzoic acid] | +
10 | O=C(O)c1cc(OCc2cn(CCO[C@@H]3O[C@H](CO[C@@H]4O[C@H](CO[C@@H]5O[C@H](CO[C@@H]6O[C@H](CO)[C@@H](O)[C@H](O)[C@H]6O)[C@@H](O)[C@H](O)[C@H]5O)[C@@H](O)[C@H](O)[C@H]4O)[C@@H](O)[C@H](O)[C@H]3O)nn2)cc(OCc2cn(CCO[C@@H]3O[C@H](CO[C@@H]4O[C@H](CO[C@@H]5O[C@H](CO[C@@H]6O[C@H](CO)[C@@H](O)[C@H](O)[C@H]6O)[C@@H](O)[C@H](O)[C@H]5O)[C@@H](O)[C@H](O)[C@H]4O)[C@@H](O)[C@H](O)[C@H]3O)nn2)c1 [(β-D-glucopyanosy1-1,6)nβ-O(CH2)2-, n=4, 3,5-bis(1[2-[O-β-D-glucopyranosyl-(1→6)]4oxy]ethyl-1H-1,2,3-triazol-4-yl)methoxybenzoic acid] | +
11 | O=C(O)c1cc(OCc2cn(CCO[C@@H]3O[C@H](CO[C@@H]4O[C@H](CO[C@@H]5O[C@H](CO[C@@H]6O[C@H](CO[C@@H]7O[C@H](CO)[C@@H](O)[C@H](O)[C@H]7O)[C@@H](O)[C@H](O)[C@H]6O)[C@@H](O)[C@H](O)[C@H]5O)[C@@H](O)[C@H](O)[C@H]4O)[C@@H](O)[C@H](O)[C@H]3O)nn2)cc(OCc2cn(CCO[C@@H]3O[C@H](CO[C@@H]4O[C@H](CO[C@@H]5O[C@H](CO[C@@H]6O[C@H](CO[C@@H]7O[C@H](CO)[C@@H](O)[C@H](O)[C@H]7O)[C@@H](O)[C@H](O)[C@H]6O)[C@@H](O)[C@H](O)[C@H]5O)[C@@H](O)[C@H](O)[C@H]4O)[C@@H](O)[C@H](O)[C@H]3O)nn2)c1 [(β-D-glucopyanosy1-1,6)nβ-O(CH2)2-, n=5, 3,5-bis(1[2-[O-β-D-glucopyranosyl-(1→6)]5oxy]ethyl-1H-1,2,3-triazol-4-yl)methoxybenzoic acid] | +

More lines, now with the values ahead:

Row | ELISA assay data: glucan active in detection of anti-beta glucan IgG | Compound
12 | + | CN(Cc1ccc(C(=O)O)cc1)CC(O)[C@@H](O)[C@H](O)[C@H](O)CO[C@@H]1O[C@H](CO[C@@H]2O[C@H](CO[C@@H]3O[C@H](CO[C@@H]4O[C@H](CO)[C@@H](O)[C@H](O)[C@H]4O)[C@@H](O)[C@H](O)[C@H]3O)[C@@H](O)[C@H](O)[C@H]2O)[C@@H](O)[C@H](O)[C@H]1O (mixture of isomers) [N(Me),N(CH2)4-BzOH, n=4]
13 | + | CN(Cc1ccc(C(=O)O)cc1)CC(O)[C@@H](O)[C@H](O)[C@H](O)CO[C@@H]1O[C@H](CO[C@@H]2O[C@H](CO[C@@H]3O[C@H](CO[C@@H]4O[C@H](CO[C@@H]5O[C@H](CO)[C@@H](O)[C@H](O)[C@H]5O)[C@@H](O)[C@H](O)[C@H]4O)[C@@H](O)[C@H](O)[C@H]3O)[C@@H](O)[C@H](O)[C@H]2O)[C@@H](O)[C@H](O)[C@H]1O (mixture of isomers) [N(Me),N(CH2)4-BzOH, n=5]
14 | + | CN(Cc1ccc(C(=O)O)cc1)CC(O)[C@@H](O)[C@H](O)[C@H](O)CO[C@@H]1O[C@H](CO[C@@H]2O[C@H](CO[C@@H]3O[C@H](CO[C@@H]4O[C@H](CO[C@@H]5O[C@H](CO[C@@H]6O[C@H](CO)[C@@H](O)[C@H](O)[C@H]6O)[C@@H](O)[C@H](O)[C@H]5O)[C@@H](O)[C@H](O)[C@H]4O)[C@@H](O)[C@H](O)[C@H]3O)[C@@H](O)[C@H](O)[C@H]2O)[C@@H](O)[C@H](O)[C@H]1O (mixture of isomers) [N(Me),N(CH2)4-BzOH, n=6]
15 | + | CN(CCCCCN)CC(O)[C@@H](O)[C@H](O)[C@H](O)CO[C@@H]1O[C@H](CO[C@@H]2O[C@H](CO[C@@H]3O[C@H](CO)[C@@H](O)[C@H](O)[C@H]3O)[C@@H](O)[C@H](O)[C@H]2O)[C@@H](O)[C@H](O)[C@H]1O (mixture of isomers) [N(Me),N(CH2)5NH2, n=3]
16 | + | CN(CCCCCN)CC(O)[C@@H](O)[C@H](O)[C@H](O)CO[C@@H]1O[C@H](CO[C@@H]2O[C@H](CO[C@@H]3O[C@H](CO[C@@H]4O[C@H](CO[C@@H]5O[C@H](CO)[C@@H](O)[C@H](O)[C@H]5O)[C@@H](O)[C@H](O)[C@H]4O)[C@@H](O)[C@H](O)[C@H]3O)[C@@H](O)[C@H](O)[C@H]2O)[C@@H](O)[C@H](O)[C@H]1O (mixture of isomers) [N(Me),N(CH2)5NH2, n=5]
17 | + | CN(CCCCCN)CC(O)[C@@H](O)[C@H](O)[C@H](O)CO[C@@H]1O[C@H](CO[C@@H]2O[C@H](CO[C@@H]3O[C@H](CO[C@@H]4O[C@H](CO[C@@H]5O[C@H](CO[C@@H]6O[C@H](CO)[C@@H](O)[C@H](O)[C@H]6O)[C@@H](O)[C@H](O)[C@H]5O)[C@@H](O)[C@H](O)[C@H]4O)[C@@H](O)[C@H](O)[C@H]3O)[C@@H](O)[C@H](O)[C@H]2O)[C@@H](O)[C@H](O)[C@H]1O (mixture of isomers) [N(Me),N(CH2)5NH2, n=6]
18 | + | [N-]=[N+]=NCCO[C@@H]1O[C@H](CO[C@@H]2O[C@H](CO[C@@H]3O[C@H](CO[C@@H]4O[C@H](CO)[C@@H](O)[C@H](O)[C@H]4O)[C@@H](O)[C@H](O)[C@H]3O)[C@@H](O)[C@H](O)[C@H]2O)[C@@H](O)[C@H](O)[C@H]1O (stereo in doubt) [β-O(CH2)2N3, n=4, 2-Azido ethyl [O-β-D-glucopyranosyl-1,6]3-β-D-glucopyranoside]
